Here are results for 23 compounds from ChEMBL document CHEMBL1130041, “Halogenated 4-(phenoxymethyl)piperidines as potential radiolabeled probes for sigma-1 receptors: in vivo evaluation of [123I]-1-(iodopropen-2-yl)-4-[(4-cyanophenoxy)methyl]pip eri dine” (J Med Chem, 1997).

Where only a bound is given, the exact number is not on record here.

Data set [1] has as its target T1, Sigma non-opioid intracellular receptor 1 (Homo sapiens, UniProt Q99720). The experiment in a line: Receptor binding affinity against Sigma receptor.
Data set [2] can be described thus: In Vitro binding affinity for 5-hydroxytryptamine 2 receptor.
Data set [3] addresses Sigma 2 receptor. The experiment in a line: In vitro for binding affinity at sigma-2 receptor by measuring its ability to displace [3H]DTG from guinea pig membranes. More on the design: species or system Cavia porcellus.
A short description of data set [4]: (§1) Ki ratio measured as Ki of sigma-2 receptor to that of sigma-1 receptor.
Another data set has as its target D(2) dopamine receptor (Homo sapiens, UniProt P14416). The experiment in a line: In vitro binding affinity for Dopamine receptor D2.
A short description of data set [5]: Partition coefficient (logP). Particulars: octanol/water. It counts as physicochemical.
The species entered for data set [6] is Rattus norvegicus. Description: Blockade of uptake of the radiotracer in posterior cortex. The format is functional.
Data set [7] concerns the target T1, Sigma non-opioid intracellular receptor 1. The description is as §1. Particulars: Cavia porcellus.
Data set [8] deals with Sigma 2 receptor. Description: Receptor binding affinity against Sigma-2 receptor from guinea pig membranes. More on the design: species or system Cavia porcellus.
For data set [9], the species on record is Rattus norvegicus. The experiment in a line: Blockade of uptake of the radiotracer in posterior cortex of rat. The format is functional.
The target of data set [10] is T1, Sigma non-opioid intracellular receptor 1. Description: Ki ratio measured as Ki of sigma-2 receptor to that of sigma-1 receptor. As to conditions: Cavia porcellus.

T1 sequence (Q99720 whole entry): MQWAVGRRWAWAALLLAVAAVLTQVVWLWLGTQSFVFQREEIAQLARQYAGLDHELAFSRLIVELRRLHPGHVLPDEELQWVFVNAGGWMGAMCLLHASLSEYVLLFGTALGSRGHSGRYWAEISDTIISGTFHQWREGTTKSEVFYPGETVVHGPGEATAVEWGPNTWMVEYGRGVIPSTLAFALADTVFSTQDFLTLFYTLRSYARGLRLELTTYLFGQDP
Sequence of D(2) dopamine receptor (P14416 whole entry): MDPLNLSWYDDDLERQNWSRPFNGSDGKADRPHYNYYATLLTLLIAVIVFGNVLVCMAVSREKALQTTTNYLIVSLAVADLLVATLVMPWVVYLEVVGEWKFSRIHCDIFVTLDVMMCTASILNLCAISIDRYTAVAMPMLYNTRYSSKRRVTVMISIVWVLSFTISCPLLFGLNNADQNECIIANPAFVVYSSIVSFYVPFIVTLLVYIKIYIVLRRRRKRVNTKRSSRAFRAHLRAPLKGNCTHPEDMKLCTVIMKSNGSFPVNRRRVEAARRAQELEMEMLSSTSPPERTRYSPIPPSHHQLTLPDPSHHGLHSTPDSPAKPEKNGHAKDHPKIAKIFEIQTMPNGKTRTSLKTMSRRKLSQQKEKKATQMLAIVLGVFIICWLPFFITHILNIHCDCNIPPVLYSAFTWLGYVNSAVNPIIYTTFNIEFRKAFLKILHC

What is called Ki is a dissociation constant, usually derived from enzyme kinetics or from competition with a known ligand. Low readings indicate higher affinity, high ones lower affinity. As to `O=[N+]([O-])c1ccc(OCC2CCN(CC3CC3)CC2)cc1`, the Ki is 13 nM in [1] and greater than 200 nM in data set [2].

`Fc1ccc(CN2CCC(COc3c(F)c(F)c(F)c(F)c3F)CC2)cc1`: the values for the Ki (in data set [2]; at Sigma 2 receptor [3]) were greater than 10000 nM and 4.3 nM, respectively. Moreover, the Ratio in data set [4] was 1.17.

The logP is a log measure of how a compound divides between an organic and an aqueous phase. For the compound `N#Cc1ccc(OCC2CCN(CCCF)CC2)cc1`, the Ki was greater than 10000 nM at D(2) dopamine receptor, greater than 10000 nM in [2] and 144 nM on Sigma 2 receptor [3]. In data set [5], this compound yielded a logP of 2.93.

With `Fc1c(F)c(F)c(CN2CCC(COc3c(F)c(F)c(F)c(F)c3F)CC2)c(F)c1F`, the Ki in [2] is greater than 10000 nM; on Sigma 2 receptor [3], greater than 1000 nM.

With `N#Cc1ccc(OCC2CCN(Cc3ccccc3I)CC2)cc1`, the Ki was greater than 1000 nM in data set [2] and 93.6 nM on Sigma 2 receptor [3]. The Ratio in data set [4] was determined as 10.1. The compound also yielded a logP in data set [5] of 4.3.

For `Brc1ccc(OCC2CCN(CC3CC3)CC2)cc1`, the Ki at D(2) dopamine receptor is greater than 10000 nM; in data set [2], greater than 10000 nM; on Sigma 2 receptor [3] it was 13.6 nM. Moreover, in data set [4], the Ratio worked out at 22.7. The logP in data set [5] was determined as 6.22.

Consider `N#Cc1ccc(OCC2CCN(Cc3ccccc3Br)CC2)cc1`, for which the Ki in [2] was greater than 1000 nM; on Sigma 2 receptor [3] it was 31.1 nM. For the same compound, the Ratio in data set [4] came out at 15.4. The compound further showed a logP in [5] of 4.09.

Consider `Ic1ccc(OCC2CCN(CC3CC3)CC2)cc1`, for which the inhibition constant Ki on D(2) dopamine receptor was greater than 10000 nM; in data set [2], greater than 10000 nM; at Sigma 2 receptor [3], 11.7 nM. Moreover, in [4], the Ratio stood at 23.4. The compound further displayed a logP in data set [5] of 6.67.

On to `FCCCN1CCC(COc2ccc(Br)cc2)CC1`, for which the inhibitory constant (Ki) on D(2) dopamine receptor was greater than 10000 nM; in [2] it was greater than 10000 nM; at Sigma 2 receptor [3], 13.1 nM. Moreover, the Ratio in data set [4] amounted to 34.5. Further, the logP in data set [5] came to 5.88.

Take `N#Cc1ccc(OCC2CCN(CC3CC3)CC2)cc1`: the Ki was 10 nM in data set [1] and greater than 200 nM in data set [2].

Regarding `CC(C)=CCN1CC[C@]2(C)c3cc(O)ccc3C[C@H]1[C@H]2C` (single isomer, unassigned) [(+)-PENTAZOCINE], the Blockade in the data set listed under Rattus norvegicus [6] came out at 84%.

As for `N#Cc1cccc(CN2CCC(COc3ccc(I)cc3)CC2)c1`, the inhibition constant Ki in [2] was greater than 1000 nM; at Sigma 2 receptor [3] it was 69.5 nM. In data set [4], the Ratio was found to be 24. Besides, the log partition coefficient (logP) in [5] was found to be 4.19.

Turning to `N#Cc1ccc(OCC2CCN(CCF)CC2)cc1`, the Ki at D(2) dopamine receptor is greater than 10000 nM; in data set [2] it was greater than 10000 nM; at Sigma 2 receptor [3], 361 nM. Further, the Ratio in data set [4] worked out at 14.9. This compound also yielded a logP in [5] of 2.42.

Take `O=[N+]([O-])c1ccc(OCC2CCN(Cc3ccc(F)cc3)CC2)cc1`: the Ki at D(2) dopamine receptor is greater than 10000 nM; in [2], greater than 10000 nM; on Sigma 2 receptor [8], 3.9 nM. In addition, the Ratio in data set [7] came to 3.25. The logP in data set [5] amounted to 3.62.

Consider `N#Cc1ccccc1CN1CCC(COc2ccc(I)cc2)CC1`, for which the Ki is greater than 1000 nM in data set [2] and 142 nM on Sigma 2 receptor [3]. In addition, the Ratio in [4] was found to be 13.5. The log partition coefficient (logP) in data set [5] stood at 4.32.

`O=C(CCCN1CCC(O)(c2ccc(Cl)cc2)CC1)c1ccc(F)cc1` [HALOPERIDOL]: the Blockade in the data set listed under Rattus norvegicus [9] is recorded as 91%.

`O=C(CC1CCN(CC2CC2)CC1)c1ccc(F)cc1` yielded a Ki in [2] of 15 nM.

Turning to `OCCN1CCC(COc2ccc(I)cc2)CC1`, the Ki at D(2) dopamine receptor is greater than 10000 nM; in data set [2] it was greater than 10000 nM; at Sigma 2 receptor [3], 139 nM. Moreover, in data set [4], the Ratio came out at 60.4. The same compound came in with a logP in data set [5] of 3.8.

In the case of `FCCCN1CCC(COc2c(F)c(F)c(F)c(F)c2F)CC1`, the results for the Ki (in data set [2]; on Sigma 2 receptor [3]) were greater than 10000 nM and 5.3 nM, respectively. For the same compound, the Ratio in data set [4] amounted to 2.05. This compound also returned a logP in [5] of 4.11.

Regarding `Fc1cccc(CN2CCC(COc3c(F)c(F)c(F)c(F)c3F)CC2)c1`, the Ki in [2] is greater than 10000 nM; on Sigma 2 receptor [3], 25 nM. Moreover, in [4], the Ratio was determined as 7.48. In [5], this compound gave a logP of 4.72.

Take `Brc1cccc(OCC2CCN(CC3CC3)CC2)c1`: the Ki is greater than 10000 nM at D(2) dopamine receptor, greater than 10000 nM in [2] and 9.9 nM on Sigma 2 receptor [3]. In data set [4], the Ratio came to 11.3. Moreover, the logP in data set [5] turned out to be 6.36.

As to `FCCN1CCC(COc2ccc(I)cc2)CC1`, the inhibition constant (Ki) was greater than 10000 nM at D(2) dopamine receptor, greater than 10000 nM in data set [2] and 102 nM on Sigma 2 receptor [3]. The Ratio in data set [4] amounted to 121. In data set [5], this compound showed a log partition coefficient (logP) of 4.02.

For the compound `N#Cc1ccc(OCC2CCN(Cc3ccc(F)cc3)CC2)cc1`, the Ki at D(2) dopamine receptor is greater than 10000 nM; in data set [2], greater than 10000 nM; on Sigma 2 receptor [3], 5.2 nM. Moreover, in [5], the logP stood at 3.22. In data set [10], the Ratio came out at 6.84.
